PubChem BioAssay AID256 (DTP/NCI, 2004)
Inconclusive results and toxic doses are left out. Rule for the calls: active = survival T/C of 150% or more; inactive = T/C below 125% in these data.

Tested on: CD2F1 mice, L1210 leukemia ip, survival T/C
Assay: NCI In Vivo Anticancer Drug Screen. Data for tumor model L1210 Leukemia (intraperitoneal) in CD2F1 (CDF1) mice
Conditions: higher = longer survival
Summary of the method: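 Read-out first: treated-group measurement over vehicle-control measurement, expressed as a ratio. Animals bore a transplanted tumor line and were dosed with compound or vehicle.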

[1] = endpoint: mean survival time, dose: 100.0 mg/kg/injection, schedule: Q04DX002 (ip), vehicle: saline with Tween-80
[2] = endpoint: mean survival time, dose: 200.0 mg/kg/injection, schedule: Q04DX002 (ip), vehicle: saline with Tween-80
[3] = endpoint: mean survival time, dose: 400.0 mg/kg/injection, schedule: Q04DX002 (ip), vehicle: saline with Tween-80

Measured: T/C

CC1/C=C/C=C/CC/C=C/C=C/C=C/C=C/C(OC2OC(C)C(O)C(N)C2O)CC2OC(CC(O)C(O)CCC(O)CC(O)CC(O)CC(=O)OC(C)C(C)C1O)CC(O)C2C(=O)O (centres undefined)
inactive: endpoint: mean survival time, dose: 9.5 mg/kg/injection, schedule: Q01DX009 (ip), vehicle: saline sonified 95 % of control | endpoint: mean survival time, dose: 9.5 mg/kg/injection, schedule: Q04DX003 (ip), vehicle: saline sonified 98 % of control | endpoint: mean survival time, dose: 19.0 mg/kg/injection, schedule: Q01DX009 (ip), vehicle: saline sonified 93 % of control | endpoint: mean survival time, dose: 19.0 mg/kg/injection, schedule: Q04DX003 (ip), vehicle: saline sonified 92 % of control | endpoint: mean survival time, dose: 38.0 mg/kg/injection, schedule: Q01DX009 (ip), vehicle: saline sonified 87 % of control | endpoint: mean survival time, dose: 38.0 mg/kg/injection, schedule: Q04DX003 (ip), vehicle: saline sonified 100 % of control | endpoint: median survival time, dose: 6.25 mg/kg/injection, schedule: Q01DX009 (ip), vehicle: saline with Tween-80 100 % of control | endpoint: median survival time, dose: 12.5 mg/kg/injection, schedule: Q01DX009 (ip), vehicle: saline with Tween-80 100 % of control | endpoint: median survival time, dose: 25.0 mg/kg/injection, schedule: Q01DX009 (ip), vehicle: saline with Tween-80 102 % of control | endpoint: median survival time, dose: 50.0 mg/kg/injection, schedule: Q01DX009 (ip), vehicle: saline with Tween-80 101 % of control | endpoint: median survival time, dose: 100.0 mg/kg/injection, schedule: Q01DX009 (ip), vehicle: saline with Tween-80 100 % of control

COc1ccc(NC(=O)Nc2ccccc2OC)c(OC)c1
inactive: [1] 94 % of control | [2] 94 % of control | [3] 87 % of control

CCCC[N-]CC(O)C[NH-].O=C(O)CC(=O)O.[Pt+2] (centres undefined)
inactive: endpoint: median survival time, dose: 10.0 mg/kg/injection, schedule: Q04DX003 (ip), vehicle: water 105 % of control | endpoint: median survival time, dose: 20.0 mg/kg/injection, schedule: Q04DX003 (ip), vehicle: water 103 % of control | endpoint: median survival time, dose: 40.0 mg/kg/injection, schedule: Q04DX003 (ip), vehicle: water 105 % of control | endpoint: median survival time, dose: 50.5 mg/kg/injection, schedule: Q04DX003 (ip), vehicle: water 103 % of control | endpoint: median survival time, dose: 80.0 mg/kg/injection, schedule: Q04DX003 (ip), vehicle: water 97 % of control | endpoint: median survival time, dose: 101.0 mg/kg/injection, schedule: Q04DX003 (ip), vehicle: water 103 % of control | endpoint: median survival time, dose: 202.0 mg/kg/injection, schedule: Q04DX003 (ip), vehicle: water 107 % of control

ON(C(=S)Nc1ccccc1)c1ccccc1
inactive: endpoint: mean survival time, dose: 100.0 mg/kg/injection, schedule: Q01DX001 (ip), vehicle: saline 93 % of control | endpoint: mean survival time, dose: 200.0 mg/kg/injection, schedule: Q01DX001 (ip), vehicle: saline 98 % of control | endpoint: mean survival time, dose: 400.0 mg/kg/injection, schedule: Q01DX001 (ip), vehicle: saline 97 % of control

CN(C)c1ccc(N=Cc2cc[n+](C)cc2)cc1
inactive: endpoint: mean survival time, dose: 25.0 mg/kg/injection, schedule: Q04DX003 (ip), vehicle: saline 98 % of control | endpoint: mean survival time, dose: 50.0 mg/kg/injection, schedule: Q04DX003 (ip), vehicle: saline 102 % of control | endpoint: mean survival time, dose: 100.0 mg/kg/injection, schedule: Q04DX003 (ip), vehicle: saline 102 % of control

NNc1ncnc2c1ccn2C1OC(CO)C(O)C1O (centres undefined)
inactive: endpoint: mean survival time, dose: 35.0 mg/kg/injection, schedule: Q01DX001 (ip), vehicle: saline 116 % of control | endpoint: mean survival time, dose: 53.0 mg/kg/injection, schedule: Q01DX001 (ip), vehicle: saline 110 % of control | endpoint: mean survival time, dose: 80.0 mg/kg/injection, schedule: Q01DX001 (ip), vehicle: saline 112 % of control | endpoint: mean survival time, dose: 120.0 mg/kg/injection, schedule: Q01DX001 (ip), vehicle: saline 116 % of control

CC(=O)NC(CSCc1c2ccccc2c(C)c2c1ccc1ccccc12)C(=O)O (centres undefined)
inactive: endpoint: mean survival time, dose: 50.0 mg/kg/injection, schedule: Q01DX009 (ip), vehicle: saline with Tween-80 103 % of control | endpoint: mean survival time, dose: 100.0 mg/kg/injection, schedule: Q01DX009 (ip), vehicle: saline with Tween-80 95 % of control | endpoint: mean survival time, dose: 100.0 mg/kg/injection, schedule: Q04DX003 (ip), vehicle: saline with Tween-80 93 % of control | endpoint: mean survival time, dose: 200.0 mg/kg/injection, schedule: Q01DX009 (ip), vehicle: saline with Tween-80 103 % of control | endpoint: mean survival time, dose: 200.0 mg/kg/injection, schedule: Q04DX003 (ip), vehicle: saline with Tween-80 90 % of control

CC1=C(CCC(=O)O)C(=O)C(CCC(=O)O)C(C)(C)C1 (centres undefined)
inactive: [1] 96 % of control | [2] 100 % of control | [3] 100 % of control
